# Reference: the NIST ThermoML archive (doi:10.1016/j.fluid.2018.05.023)
# ± gives the expanded uncertainty stated by the source.
# How the values were obtained:
# [1] = Crystal; DTA
# [2] = Molar enthalpy of transition or fusion; settings: Crystal; DSC
structure (smiles),measurement,setting,value
Cn1cc([N+](=O)[O-])cn1 [1-methyl-4-nitropyrazole],Normal melting temperature,[1],92.00 ± 1.1 °C
same,Molar enthalpy of transition or fusion,[2],2.36 ± 0.112 kcal/mol
